Measurements from article PMC8159961, “Exploring protein hotspots by optimized fragment pharmacophores” (Nature Communications, 2021).

Legend:
human 5-HT1A receptor = target: T1, human 5-HT1A receptor (Homo sapiens, UniProt P08908); experiment: GPCR radioligand binding assay, [3H]-8-OH-DPAT displacement, HEK293 membranes; details: for 5-HT1A % Inhibition by plate position: 10 µM; for %inh 5-HT1A average: average of exp_1 and exp_2; for %inh 5-HT1A exp_1: replicate exp_1; for %inh 5-HT1A exp_2: replicate exp_2; for %inh 5-HT1A corrected*: average, values below 0 and above 100% were set as 0 and 100
T1 construct: expressed in transfected cells
T1 sequence (P08908 1-422): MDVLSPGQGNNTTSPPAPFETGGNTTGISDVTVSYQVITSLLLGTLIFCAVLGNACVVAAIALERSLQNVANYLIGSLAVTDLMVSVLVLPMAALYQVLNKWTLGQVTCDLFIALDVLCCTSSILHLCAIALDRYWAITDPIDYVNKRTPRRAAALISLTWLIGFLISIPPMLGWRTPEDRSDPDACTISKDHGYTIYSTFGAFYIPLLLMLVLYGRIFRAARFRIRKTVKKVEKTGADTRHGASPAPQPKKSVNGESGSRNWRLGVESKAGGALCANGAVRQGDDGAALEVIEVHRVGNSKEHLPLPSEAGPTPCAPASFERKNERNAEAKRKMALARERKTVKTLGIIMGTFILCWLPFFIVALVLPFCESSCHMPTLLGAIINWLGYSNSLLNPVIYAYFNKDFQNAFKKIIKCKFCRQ

human 5-HT6 receptor = target: T2, human 5-HT6 receptor (Homo sapiens, UniProt P50406); experiment: GPCR radioligand binding assay, [3H]-LSD displacement, HEK293 membranes; details: for 5-HT6 % Inhibition by plate position: 10 µM; for %inh 5-HT6 average: average of exp_1 and exp_2; for %inh 5-HT6 corrected*: average, values below 0 and above 100% were set as 0 and 100; for %inh 5-HT6 exp_1: replicate exp_1; for %inh 5-HT6 exp_2: replicate exp_2
T2 construct: expressed in transfected cells

human 5-HT7b receptor = target: T3, human 5-HT7b receptor (Homo sapiens, UniProt P34969); experiment: GPCR radioligand binding assay, [3H]-5-CT displacement, HEK293 membranes; details: for 5-HT7 % Inhibition by plate position: 10 µM; for %inh 5-HT7 average: average of exp_1 and exp_2; for %inh 5-HT7 exp_1: replicate exp_1; for %inh 5-HT7 exp_2: replicate exp_2
T3 construct: expressed in transfected cells
T3 sequence (P34969 1-432): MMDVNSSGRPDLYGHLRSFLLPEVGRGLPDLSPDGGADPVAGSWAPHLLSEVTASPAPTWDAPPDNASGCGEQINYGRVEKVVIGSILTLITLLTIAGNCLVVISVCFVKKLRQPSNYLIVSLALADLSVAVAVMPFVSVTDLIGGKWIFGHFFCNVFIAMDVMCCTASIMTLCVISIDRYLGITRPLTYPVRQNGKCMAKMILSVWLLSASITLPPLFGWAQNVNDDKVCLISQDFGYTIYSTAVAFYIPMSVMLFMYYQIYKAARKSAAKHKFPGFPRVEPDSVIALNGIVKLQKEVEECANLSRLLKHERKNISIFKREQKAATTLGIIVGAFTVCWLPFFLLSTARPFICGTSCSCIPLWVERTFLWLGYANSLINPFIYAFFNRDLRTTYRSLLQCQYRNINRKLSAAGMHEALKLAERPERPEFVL

T2 sequence (P50406 whole entry): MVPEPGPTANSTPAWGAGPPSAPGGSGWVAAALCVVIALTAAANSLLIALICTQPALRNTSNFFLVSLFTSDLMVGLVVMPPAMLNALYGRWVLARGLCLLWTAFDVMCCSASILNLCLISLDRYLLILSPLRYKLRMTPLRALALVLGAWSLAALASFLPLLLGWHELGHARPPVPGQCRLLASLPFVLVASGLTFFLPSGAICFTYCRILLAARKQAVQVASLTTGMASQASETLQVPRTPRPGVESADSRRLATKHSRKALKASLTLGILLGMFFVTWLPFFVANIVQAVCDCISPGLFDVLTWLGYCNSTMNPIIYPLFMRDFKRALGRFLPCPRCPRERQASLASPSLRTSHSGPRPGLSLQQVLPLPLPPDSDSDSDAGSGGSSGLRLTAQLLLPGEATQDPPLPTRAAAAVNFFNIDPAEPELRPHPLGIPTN

| SMILES | 5-HT1A % Inhibition by plate position (human 5-HT1A receptor) | %inh 5-HT1A average (human 5-HT1A receptor) | %inh 5-HT1A exp_1 (human 5-HT1A receptor) | %inh 5-HT1A exp_2 (human 5-HT1A receptor) | 5-HT6 % Inhibition by plate position (human 5-HT6 receptor) | %inh 5-HT6 average (human 5-HT6 receptor) | %inh 5-HT6 corrected* (human 5-HT6 receptor) | %inh 5-HT6 exp_1 (human 5-HT6 receptor) | %inh 5-HT6 exp_2 (human 5-HT6 receptor) | 5-HT7 % Inhibition by plate position (human 5-HT7b receptor) | %inh 5-HT7 average (human 5-HT7b receptor) | %inh 5-HT7 exp_1 (human 5-HT7b receptor) | %inh 5-HT7 exp_2 (human 5-HT7b receptor) | %inh 5-HT1A corrected* (human 5-HT1A receptor) |
| --- | --- | --- | --- | --- | --- | --- | --- | --- | --- | --- | --- | --- | --- | --- |
| Cc1nc(-c2ccccc2)cs1 [A7] | 0% | -4.34% | -13% | 4% | 50% | 50% | 50% | 50% | 50% | 0% | -0.168% | -4% | 3.71% | – |
| Cc1cc(-c2ccccc2)n[nH]1 [A8] | – | 9% | 9% | 9% | 48% | 48% | 48% | 44% | 52% | 34% | – | 37% | 32% | 9% |
| Brc1ccc(-c2ccon2)cc1 [A9] | – | 3.49% | 4% | 3% | 34% | 34% | 34% | 40% | 29% | 5.57% | – | 1.16% | 10% | 3.49% |
| COc1ccccc1N1CCNCC1 [A10] | 100% | 102% | 101% | 103% | 69% | 69% | 69% | 80% | 58% | 72% | – | 67% | 76% | – |
| COc1ccccc1C1CCNCC1 [A11] | – | 99% | 100% | 98% | 71% | 71% | 71% | 82% | 59% | 73% | – | 64% | 81% | 99% |
| CS(=O)(=O)c1ccc(N2CCNCC2)cc1 [B1] | – | 4.22% | 8.43% | 0% | 28% | 28% | 28% | 28% | 28% | 35% | – | 29% | 40% | 4.22% |
| O=C1CNCCN1c1ccccc1 [B2] | – | 4.62% | 9% | 0% | 47% | 47% | 47% | 50% | 44% | 0% | -2.46% | 14% | -19% | 4.62% |
| O=C1CCCc2occc21 [B3] | 0% | -4.51% | -9% | 0% | 34% | 34% | 34% | 37% | 30% | 0% | -2.76% | 8% | -14% | – |
| NC1CCc2ccccc21 (stereo not drawn) [B4] | – | 17% | 19% | 16% | 16% | 16% | 16% | 16% | 17% | 28% | – | 28% | 28% | 17% |
